Measured values from paper PMC7915902, “Preclinical Evaluation of [^18F]FACH in Healthy Mice and Piglets: An ^18F-Labeled Ligand for Imaging of Monocarboxylate Transporters with PET” (International Journal of Molecular Sciences, 2021).
“And” between values parts separate entries of the source, which are not always exact repeats. Identical values can stand only once.

Legend:
[1] = system: MCT4; design: method as in PMID 31017677; details: L-[14C]lactate uptake, MDA-MB231 cells; read-out: IC50 towards MCT4; cited from earlier work
[2] = design: method as in PMID 32357571; details: from dosimetry studies in piglets; cited from earlier work
[3] = system: MCTs; experiment: PET displacement study in mice; assay type: in vivo, mouse; details: mice
Experimental: The biodistribution of [^18F]FACH in mice was assessed by small animal PET (Nanoscan, Mediso, Budapest, Hungary) with dynamic 60 min emission recordings, followed by T1 weighted GRE MR (TR = 15.0 ms, TE = 2.4 ms, FA = 25°) imaging for anatomical correlations and attenuation correction. The mice (n = 20) weighing 32.2 ± 2.9 g were anaesthetised with 2% isoflurane in 60% oxygen, and placed on a thermostatically heated animal bed. The animals then received i.v. injections of 0.9% saline (control), reference compound (10 mg/kg), or α-CCA-Na (25 mg/kg) ten min prior or 20 min after (displacement studies) [^18F]FACH administration (2.3–8.6 MBq, 0.5–11.2 nmol/kg). List mode PET data were binned as a series of attenuation-corrected sinogram frames (12 × 10 s, 6 × 30 s, 5 × 60 s and 10 × 300 s) and were reconstructed by Ordered Subset Expectation Maximization (OSEM3D) with four iterations, six subsets and a voxel size of 0.4 mm³ (Nucline v2.01, Mediso).
The analysis of reconstructed datasets was performed with PMOD software (v4.103, PMOD Technologies LLC, Zurich, Switzerland).

[4] = system: plasma protein; experiment: Plasma protein binding in vitro (ultrafiltration); assay type: in vitro ADME, piglet; details: pig plasma, 20 min at 37 °C
Experimental: To measure plasma protein binding in vitro, a 1 mL portion of piglet plasma was incubated with 4.9 MBq [^18F]FACH (10 µL) on a shaker (400 rpm) for 20 min at 37 °C. The plasma protein binding was also measured ex vivo in 10 µL portions of mouse plasma from retro-orbital blood samples collected 70 min after intravenous (i.v.) injection of 3.7 MBq [^18F]FACH via a tail vein. The free and bound fractions of [^18F]FACH were separated by centrifugation at room temperature (2000 g for ten minutes, Centrifree® YM-30, Ultrafiltration Device; Merck KGaA, Darmstadt, Germany). Radioactivity was measured in aliquots of ultrafiltrate and in prefiltration plasma samples, using a Wizard 2470 γ-counter (PerkinElmer LAS, Rodgau, Germany), and the free fraction in the plasma (fp) calculated from the concentration ratio.

[5] = system: MCTs; experiment: Ex vivo biodistribution in mice; design: species or system mouse; details: for SUV adipose tissue / SUV adrenal gland / SUV bladder / SUV blood / SUV brain / SUV caecum / SUV femur / SUV gall bladder / SUV heart / SUV kidney / SUV large intestine / SUV liver / SUV lung / SUV ovar / SUV pancreas / SUV plasma / SUV small intestine / SUV spleen / SUV stomach / SUV urine: ex vivo, control
Experimental: Adult mice (28 to 39 g bodyweight) under isoflurane anesthesia were pre-treated by i.v. injection of saline as control (n = 3 for each time point) or 25 mg/kg α-CCA-Na (n = 3 for each time point) ten min before i.v. injection of [^18F]FACH (0.53 ± 0.06 MBq, 0.14 to 0.29 pmol/g bodyweight). The animals were euthanized by anesthesia overdose and cervical dislocation at five, 15 and 30 min after i.v. [^18F]FACH administration, and the radioactivity concentrations in harvested tissues were measured by a gamma counter (PerkinElmer), decay-corrected and normalized to the administered dose and tissue weight, and expressed as SUV in their harvested tissues. The red blood cell to plasma ratio was calculated as described by Bower et al.

[6] = system: SMCT1; design: method as in PMID 31017677; details: [14C]nicotinate uptake assay; read-out: IC50 towards SMCT1; cited from earlier work
[7] = Metabolism and renal excretion of [18F]FACH in mice (radio-HPLC)
Experimental: Radio-metabolites were analyzed by analytical and semi-preparative HPLC on a JASCO LC-2000 system (JASCO Labor- und Datentechnik, Gross-Umstadt, Germany), consisting of a PU-2080 Plus pump, AS-2055 Plus auto injector (100 μL sample loop) or a manual injection valve with a 5 mL sample loop, and a UV-2070 Plus detector coupled with a gamma radioactivity HPLC detector (Gabi Star, Raytest Isotopenmessgeräte GmbH, Straubenhardt, Germany). Data analysis was performed with the Galaxie chromatography software (Agilent Technologies, Santa Clara, CA, USA). Monitoring of UV absorption was done at wavelengths of 254 and 400 nm (400 nm was detected as λmax for this class of compounds). For analytical and semi-preparative radio-HPLC analyses, Reprosil-Pur columns (C18-AQ 250 × 4.6 mm; 5 μm; and C18-AQ 150 × 4.6 mm; 10 μm; Dr. Maisch HPLC GmbH; Ammerbuch-Entringen, Germany) were used. Acetonitrile (ACN) mixed with a 20 mM aqueous solution of ammonium acetate (NH4OAc) was used as eluent.
[^18F]FACH (33.8 ± 3.3 MBq in 200 μL isotonic saline) was injected in awake CD-1 mice (n = 4) via a tail vein. At 30 min after radiotracer administration, the mice were anaesthetised with isoflurane, and retro-orbital blood was sampled, followed by cervical dislocation and collection of released urine.
In mouse studies, at 30 min after i.v. injection of the radiotracer [^18F]FACH, the plasma was isolated by centrifugation of a blood sample at 10,000 rpm for 2 min. […]
Protein precipitation of plasma and tissue homogenates was performed by addition of ice-cold ACN/H2O (9:1, v/v) at a ratio of 4:1 (v/v) of the solvent mixture to each tissue sample (n = 2). […] The combined supernatants (total volume between 1 to2 mL) were concentrated at 70 °C under argon flow to a final volume of approximately 100 μL and analyzed by analytical radio-HPLC. […] To determine the percentage of the radioactivity in the supernatants compared to the total radioactivity aliquots were taken at each step and, as well as the precipitates, quantified by gamma counting.

For `CCCN(CCC[18F])c1ccc(/C=C(\C#N)C(=O)O)c(OC)c1` [[^18F]FACH, (E)-2-cyano-3-{4-[(3-[^18F]fluoropropyl)(propyl)amino]-2-methoxyphenyl}acrylic acid], the IC50 [1] is given as 0.0065 µM, the “predicted effective radiation dose for humans” value [2] is given as “about 2 mSv/100 MBq” and the “kidney cortex SUV” value ([3]; before injection of α-CCA-Na) is given as 3.50 ± 0.42. The “blood SUV” value ([3]; pre-injection of α-CCA-Na) was 0.74 ± 0.23, the “free plasma fraction (fp)” value [4] was 0.03 and the “red blood cell to plasma ratio” value ([5]; biodistribution studies) was under 0.1. It also gave an SUV adipose tissue ([5]; 5 min p.i.) of 0.12, an SUV adrenal gland ([5]; 5 min p.i.) of 0.80 and an SUV bladder ([5]; 5 min p.i.) of 0.17. The SUV blood ([5]; 5 min p.i.) was 1.85 ± 0.29 and 1.85, the SUV brain ([5]; 5 min p.i.) was 0.08 and the SUV caecum ([5]; 5 min p.i.) was 0.18. It also gave an SUV femur ([5]; 5 min p.i.) of 0.17, an SUV gall bladder ([5]; 5 min p.i.) of 4.61 and an SUV heart ([5]; 5 min p.i.) of 0.74. The SUV kidney ([5]; 5 min p.i.) was 7.97, the SUV large intestine ([5]; 5 min p.i.) was 0.24 and the SUV liver ([5]; 5 min p.i.) was 9.65. For the same compound, the SUV lung ([5]; 5 min p.i.) was 0.89 ± 0.12 and 0.89, the SUV ovar ([5]; 5 min p.i.) was 0.38 and the SUV pancreas ([5]; 5 min p.i.) was 0.51. The SUV plasma ([5]; 5 min p.i.) was 3.77 ± 0.57 and 3.77, the SUV small intestine ([5]; 5 min p.i.) was 0.56 and the SUV spleen ([5]; 5 min p.i.) was 0.37. For the same compound, the SUV stomach ([5]; 5 min p.i.) was 0.16, the SUV urine ([5]; 5 min p.i.) was 0.82 and the SUV adipose tissue ([5]; 15 min p.i.) was 0.18. The SUV adrenal gland ([5]; 15 min p.i.) was 0.94, the SUV bladder ([5]; 15 min p.i.) was 0.35 and the SUV blood ([5]; 15 min p.i.) was 0.91. The SUV brain ([5]; 15 min p.i.) was 0.04, the SUV caecum ([5]; 15 min p.i.) was 0.15 and the SUV femur ([5]; 15 min p.i.) was 0.12. For the same compound, the SUV gall bladder ([5]; 15 min p.i.) was 5.36, the SUV heart ([5]; 15 min p.i.) was 0.53 and the SUV kidney ([5]; 15 min p.i.) was 12.81. It also gave an SUV large intestine ([5]; 15 min p.i.) of 0.19, an SUV liver ([5]; 15 min p.i.) of 10.65 and an SUV lung ([5]; 15 min p.i.) of 0.59. The SUV ovar ([5]; 15 min p.i.) was 0.33, the SUV pancreas ([5]; 15 min p.i.) was 0.44 and the SUV plasma ([5]; 15 min p.i.) was 1.76. The SUV small intestine ([5]; 15 min p.i.) was 0.66, the SUV spleen ([5]; 15 min p.i.) was 0.21 and the SUV stomach ([5]; 15 min p.i.) was 0.13. For the same compound, the SUV urine ([5]; 15 min p.i.) was 4.32, the SUV adipose tissue ([5]; 30 min p.i.) was 0.15 and the SUV adrenal gland ([5]; 30 min p.i.) was 0.51. For the same compound, the SUV bladder ([5]; 30 min p.i.) was 0.31, the SUV blood ([5]; 30 min p.i.) was 0.82 ± 0.05 and 0.82 and the SUV brain ([5]; 30 min p.i.) was 0.04. The SUV caecum ([5]; 30 min p.i.) was 0.19, the SUV femur ([5]; 30 min p.i.) was 0.15 and the SUV gall bladder ([5]; 30 min p.i.) was 10.96. For the same compound, the SUV heart ([5]; 30 min p.i.) was 0.58, the SUV kidney ([5]; 30 min p.i.) was 15.97 ± 1.07 and 15.97 and the SUV large intestine ([5]; 30 min p.i.) was 0.26. The SUV liver ([5]; 30 min p.i.) was 8.48, the SUV lung ([5]; 30 min p.i.) was 0.52 ± 0.02 and 0.52 and the SUV ovar ([5]; 30 min p.i.) was 0.32. For the same compound, the SUV pancreas ([5]; 30 min p.i.) was 0.38, the SUV plasma ([5]; 30 min p.i.) was 1.69 ± 0.17 and 1.69 and the SUV small intestine ([5]; 30 min p.i.) was 1.11. It also gave an SUV spleen ([5]; 30 min p.i.) of 0.22, an SUV stomach ([5]; 30 min p.i.) of 0.20 and an SUV urine ([5]; 30 min p.i.) of 4.57. For the same compound, the IC50 [6] was 78 µM, the “radioactivity in bladder/urine (renal excretion)” value ([7]; mice, 60 min p.i., control) was 0.51 ± 0.39 %ID and the “intact [18F]FACH in plasma” value ([7]; mouse plasma, 30 min p.i.) was “More than 99%”. For the same compound, the “[18F]FACH (parent) in urine” value ([7]; mouse urine) was under 5%.
